From ChEMBL document CHEMBL4602636, “Synthesis and in vitro antitumor evaluation of honokiol derivatives” (Bioorg Med Chem Lett, 2020)
The source made the active and inactive calls. The calls are words filed in the database; no cut-off is given here.

Assays:
[1] = system: MCF7; experiment: Antiproliferative activity against human MCF7 cells assessed as growth inhibition after 72 hrs by MTT assay; type: functional, cell-based; conditions: MCF7, 72 h
[2] = system: CNE2Z; experiment: Antiproliferative activity against human CNE2Z cells assessed as growth inhibition after 72 hrs by MTT assay; type: functional, cell-based
[3] = system: I10; experiment: Antiproliferative activity against mouse I10 cells assessed as growth inhibition after 72 hrs by MTT assay; type: functional, cell-based; conditions: I10, 72 h
[4] = system: I10; experiment: Antiproliferative activity against mouse I10 cells at 2.5 to 20 uM by MTT assay; type: functional, cell-based; conditions: TDE = time-dependent effect
[5] = system: I10; experiment: Antiproliferative activity against mouse I10 cells after 24 to 72 hrs by MTT assay; type: functional, cell-based
[6] = system: I10; experiment: Antiproliferative activity against mouse I10 cells at 20 uM after 24 to 72 hrs by MTT assay relative to control; type: functional
[7] = system: I10; experiment: Inhibition of cell migration in mouse I10 cells at 10 uM after 24 hrs under hypoxia condition by scratch wound healing assay; type: functional, cell-based
[8] = system: I10; experiment: Antiinvasive activity against mouse I10 cells assessed as reduction in number of invaded cells at 2.5 uM after 36 hrs under hypoxia condition by crystal violet staining based transwell assay; type: functional, cell-based
[9] = system: I10; experiment: Inhibition of cell migration in mouse I10 cells after 24 hrs under hypoxia condition by scratch wound healing assay; type: functional, cell-based
[10] = system: I10; experiment: Antiinvasive activity against mouse I10 cells incubated for 36 hrs under hypoxia condition by crystal violet staining based transwell assay; type: functional, cell-based
[11] = system: I10; experiment: Downregulation of HIF1alpha expression in mouse I10 cells at 20 uM after 24 hrs Western blot analysis; type: functional, cell-based
[12] = system: I10; experiment: Downregulation of MMP-2 expression in mouse I10 cells at 20 uM after 24 hrs Western blot analysis; type: functional, cell-based
[13] = system: I10; experiment: Downregulation of MMP-9 expression in mouse I10 cells at 20 uM after 24 hrs Western blot analysis; type: functional, cell-based

Compound | IC50 [1] [µM] | IC50 [2] [µM] | IC50 [3] [µM] | also measured
C=CCc1ccc(OC)c(-c2ccc(OC)c(CC=C)c2)c1 | > 50 | > 50 | > 50 | 
C=CCc1ccc(OCC)c(-c2ccc(OCC)c(CC=C)c2)c1 | > 50 | > 50 | > 50 | 
C=CCc1ccc(O)c(-c2ccc(OCc3ccc(Cl)c(Cl)c3)c(CC=C)c2)c1 | 15.3 | 17.8 | 12.3 | 
C=CCc1ccc(OCc2ccc(Cl)cc2Cl)c(-c2ccc(O)c(CC=C)c2)c1 | 27.4 | 24.2 | 21.1 | 
C=CCc1ccc(OCc2ccc(Cl)c(Cl)c2)c(-c2ccc(OCc3ccc(Cl)c(Cl)c3)c(CC=C)c2)c1 | > 50 | > 50 | > 50 | 
C=CCc1ccc(OCc2ccccc2)c(-c2ccc(O)c(CC=C)c2)c1 | 22.3 | 24 | 21.8 | 
C=CCc1ccc(OC)c(-c2ccc(O)c(CC=C)c2)c1 | 37.5 | 30.3 | 38 | 
C=CCc1ccc(O)c(-c2ccc(OCc3ccccc3)c(CC=C)c2)c1 | 23.2 | 30.3 | 29.8 | 
C=CCc1ccc(OCC)c(-c2ccc(O)c(CC=C)c2)c1 | 19.9 | 20.4 | 24.7 | 
C=CCc1ccc(OCc2ccccc2)c(-c2ccc(OCc3ccccc3)c(CC=C)c2)c1 | > 50 | > 50 | > 50 | 
C=CCc1ccc(O)c(-c2ccc(OCc3ccc(Cl)cc3Cl)c(CC=C)c2)c1 | 14.7 | 11.3 | 10.4 | Activity [4]: Tde; Activity [5]: Dose-dependent effect; Activity [6]: 100%; inhibition [7]: Active; Activity [8]: Active; inhibition [9]: Dose-dependent effect; Activity [10]: Dose-dependent effect; Activity [11]: Active; Activity [12]: Active; Activity [13]: Active
C=CCc1ccc(OCc2c(Cl)cccc2Cl)c(-c2ccc(O)c(CC=C)c2)c1 | 19.4 | 19.9 | 17.2 | 
C=CCc1ccc(OCc2ccc(Cl)c(Cl)c2)c(-c2ccc(O)c(CC=C)c2)c1 | 17.5 | 14.2 | 12.2 | 
C=CCc1ccc(O)c(-c2ccc(OCc3c(Cl)cccc3Cl)c(CC=C)c2)c1 | 11.5 | 16.4 | 16.6 | 
C=CCc1ccc(O)c(-c2ccc(O)c(CC=C)c2)c1 [HONOKIOL] | 41.8 | 31.3 | 31.1 | 
C=CCc1ccc(O)c(-c2ccc(OC)c(CC=C)c2)c1 [METHYLHONOKIOL] | 24.7 | 25.5 | 26.5 | 
C=CCc1ccc(OCc2ccc(Cl)cc2Cl)c(-c2ccc(OCc3ccc(Cl)cc3Cl)c(CC=C)c2)c1 | > 50 | > 50 | > 50 | 
C=CCc1ccc(OCc2c(Cl)cccc2Cl)c(-c2ccc(OCc3c(Cl)cccc3Cl)c(CC=C)c2)c1 | > 50 | > 50 | > 50 | 
C=CCc1ccc(O)c(-c2ccc(OCC)c(CC=C)c2)c1 | 26.3 | 24.1 | 21.4 | 
